The record followed here is ChEMBL document CHEMBL4393743, “Anti-tumor activity evaluation of novel tubulin and HDAC dual-targeting inhibitors” (Bioorg Med Chem Lett, 2019).

pIC50: −log10 of the molar value. Calls of active or inactive are those of the source. No cut-off for these calls is given here.

Test [1] relates to HeLa. In words: Antiproliferative activity against human HeLa cells assessed as cell growth inhibition incubated for 72 hrs by MTT assay. The class given is functional, cell-based.
For test [2], the system named is A549. In words: Antiproliferative activity against human A549 cells assessed as cell growth inhibition incubated for 72 hrs by MTT assay. Format: functional, cell-based. The settings on record: A549, 72 h. A general note: Tetrazolium assays rely on reduction of a dye to a coloured formazan, in cell work by metabolically active cells.
For test [3], the target named is Histone deacetylase (Homo sapiens) (UniProt Q13547+O15379+Q9UBN7+Q92769+Q9UQL6+Q8WUI4+Q9BY41+Q96DB2+P56524+Q9UKV0+Q969S8). The settings on record: HeLa, at 1 µM.
Description: Inhibition of HDAC in human HeLa cell nuclear extracts at 1 uM
Test [4] has as its system SGC-7901. In words: Antiproliferative activity against human SGC7901 cells assessed as cell growth inhibition incubated for 72 hrs by MTT assay. Format: functional, cell-based. The note with it: SGC-7901, 72 h.
Test [5] deals with A549. Description: Induction of cell cycle arrest in human A549 cells assessed as accumulation at G0/G1 phase at 10 uM incubated for 36 hrs by propidium iodide staining based flow cytometry (reference value: 72.51%). The class given is functional. (Flow cytometry measures light scatter and fluorescence of single cells or particles in a stream.)
The test system of test [6] is A549. Description: Antimigratory activity in human A549 cells at 5 to 10 uM incubated for 12 hrs in presence of mitomycin by inverted microscopic-based wound healing assay. Format: functional, cell-based.
Test [7] has as its system A549. Description: Induction of cell cycle arrest in human A549 cells assessed as accumulation at S phase at 10 uM incubated for 36 hrs by propidium iodide staining based flow cytometry (reference value: 16.66%). Format: functional.
Test [8] concerns LoVo. In words: Antiproliferative activity against human LoVo cells assessed as cell growth inhibition incubated for 72 hrs by MTT assay. Format: functional, cell-based.
Test [9] relates to A549. In words: Induction of cell cycle arrest in human A549 cells assessed as accumulation at G2/M phase at 10 uM incubated for 36 hrs by propidium iodide staining based flow cytometry (reference value: 10.83%). The class given is functional.
The test system of test [10] is A549. Description: Induction of apoptosis in human A549 cells assessed as early apoptotic cells at 10 uM incubated for 72 hrs by Annexin V-FITC/propidium iodide-staining based flow cytometric analysis (reference value: 1.8%). Format: functional.
Test [11] concerns A549. In words: Induction of apoptosis in human A549 cells assessed as necrotic cells at 10 uM incubated for 72 hrs by Annexin V-FITC/propidium iodide-staining based flow cytometric analysis (reference value: 2.76%). Format: functional.
Test [12] deals with A549. In words: Induction of apoptosis in human A549 cells assessed as late apoptotic cells at 10 uM incubated for 72 hrs by Annexin V-FITC/propidium iodide-staining based flow cytometric analysis (reference value: 5.69%). The class given is functional.
The test system of test [13] is A549. Description: Induction of apoptosis in human A549 cells assessed as live cells at 10 uM incubated for 72 hrs by Annexin V-FITC/propidium iodide-staining based flow cytometric analysis (reference value: 89.8%). The class given is functional.
For test [14], the target named is T1, Protein deacetylase HDAC6 (Homo sapiens, UniProt Q9UBN7).
T1 sequence (Q9UBN7 whole entry): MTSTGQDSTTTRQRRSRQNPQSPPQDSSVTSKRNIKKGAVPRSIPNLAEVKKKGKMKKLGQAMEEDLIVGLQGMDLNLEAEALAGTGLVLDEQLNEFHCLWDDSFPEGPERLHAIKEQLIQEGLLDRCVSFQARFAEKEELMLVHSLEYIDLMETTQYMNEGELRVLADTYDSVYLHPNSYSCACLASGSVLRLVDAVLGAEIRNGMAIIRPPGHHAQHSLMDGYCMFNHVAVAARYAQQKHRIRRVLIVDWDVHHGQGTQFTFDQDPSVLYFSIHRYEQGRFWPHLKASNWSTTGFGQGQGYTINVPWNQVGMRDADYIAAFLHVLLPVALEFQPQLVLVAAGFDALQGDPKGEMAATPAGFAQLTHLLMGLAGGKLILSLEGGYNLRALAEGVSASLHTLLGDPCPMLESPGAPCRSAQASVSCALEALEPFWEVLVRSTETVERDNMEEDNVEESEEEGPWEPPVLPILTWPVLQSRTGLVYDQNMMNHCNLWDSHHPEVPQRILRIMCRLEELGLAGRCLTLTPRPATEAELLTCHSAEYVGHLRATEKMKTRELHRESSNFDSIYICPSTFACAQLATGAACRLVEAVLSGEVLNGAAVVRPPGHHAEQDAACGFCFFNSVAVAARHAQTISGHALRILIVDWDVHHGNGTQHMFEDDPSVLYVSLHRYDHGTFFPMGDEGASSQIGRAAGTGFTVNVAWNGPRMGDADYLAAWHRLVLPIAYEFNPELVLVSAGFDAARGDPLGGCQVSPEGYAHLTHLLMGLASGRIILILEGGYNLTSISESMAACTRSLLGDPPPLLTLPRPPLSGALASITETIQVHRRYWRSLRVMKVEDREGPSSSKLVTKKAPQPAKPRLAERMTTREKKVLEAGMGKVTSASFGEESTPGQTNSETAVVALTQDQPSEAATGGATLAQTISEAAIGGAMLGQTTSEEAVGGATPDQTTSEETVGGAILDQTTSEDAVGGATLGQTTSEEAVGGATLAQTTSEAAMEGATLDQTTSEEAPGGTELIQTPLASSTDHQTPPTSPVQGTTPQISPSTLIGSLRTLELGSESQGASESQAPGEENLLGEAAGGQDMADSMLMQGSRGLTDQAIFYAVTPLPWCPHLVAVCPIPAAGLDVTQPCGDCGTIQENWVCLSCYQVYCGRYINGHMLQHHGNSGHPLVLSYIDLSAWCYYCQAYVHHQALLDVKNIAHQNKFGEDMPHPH
Description: Inhibition of HDAC6 (unknown origin) using Boc-Lys(Ac)-AMC as substrate incubated for 60 mins by fluorescence assay.

The test system of test [15] is MCF7. In words: Antiproliferative activity against human MCF7 cells assessed as cell growth inhibition incubated for 72 hrs by MTT assay. The class given is functional, cell-based. The note with it: MCF7, 72 h.
Test [16] concerns the target T2, Histone deacetylase 8 (Homo sapiens, UniProt Q9BY41).
T2 sequence (Q9BY41 whole entry): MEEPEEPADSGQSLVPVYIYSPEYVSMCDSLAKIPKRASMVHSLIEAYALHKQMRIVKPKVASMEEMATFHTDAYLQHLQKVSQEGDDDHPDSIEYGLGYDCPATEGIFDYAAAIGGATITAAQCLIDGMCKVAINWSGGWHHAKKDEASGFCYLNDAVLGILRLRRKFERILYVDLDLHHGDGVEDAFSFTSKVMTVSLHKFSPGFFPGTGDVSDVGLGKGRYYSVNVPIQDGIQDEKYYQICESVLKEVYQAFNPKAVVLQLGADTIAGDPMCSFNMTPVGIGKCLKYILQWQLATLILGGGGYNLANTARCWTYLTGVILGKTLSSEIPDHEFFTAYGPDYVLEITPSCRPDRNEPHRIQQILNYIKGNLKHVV
In words: Inhibition of HDAC8 (unknown origin) using Boc-Lys(Ac)-AMC as substrate incubated for 60 mins by fluorescence assay.

Test [17] relates to NCI-H460. In words: Antiproliferative activity against human NCI-H460 cells assessed as cell growth inhibition incubated for 72 hrs by MTT assay. Format: functional, cell-based. The note with it: NCI-H460, 72 h.
Test [18] has as its target Tubulin. Description: Inhibition of tubulin polymerization (unknown origin) by spectrophotometric method. Format: protein-complex assay, Homo sapiens.
Test [19] has as its system BGC-823. In words: Antiproliferative activity against human BGC823 cells assessed as cell growth inhibition incubated for 72 hrs by MTT assay. The note with it: BGC-823, 72 h. The class given is functional, cell-based.
The test system of test [20] is MDA-MB-231. Description: Antiproliferative activity against human MDA-MB-231 cells assessed as cell growth inhibition incubated for 72 hrs by MTT assay. The class given is functional, cell-based. The settings on record: MDA-MB-231, 72 h.
For test [21], the target named is Histone deacetylase. In words: Inhibition of HDAC in human HeLA cell nuclear extracts. Format: cell-based.
For test [22], the target named is Histone deacetylase 1 (Homo sapiens, UniProt Q13547). In words: Inhibition of HDAC1 (unknown origin) using Boc-Lys(Ac)-AMC as substrate incubated for 60 mins by fluorescence assay.
Chain of Histone deacetylase 1 (Q13547 whole entry): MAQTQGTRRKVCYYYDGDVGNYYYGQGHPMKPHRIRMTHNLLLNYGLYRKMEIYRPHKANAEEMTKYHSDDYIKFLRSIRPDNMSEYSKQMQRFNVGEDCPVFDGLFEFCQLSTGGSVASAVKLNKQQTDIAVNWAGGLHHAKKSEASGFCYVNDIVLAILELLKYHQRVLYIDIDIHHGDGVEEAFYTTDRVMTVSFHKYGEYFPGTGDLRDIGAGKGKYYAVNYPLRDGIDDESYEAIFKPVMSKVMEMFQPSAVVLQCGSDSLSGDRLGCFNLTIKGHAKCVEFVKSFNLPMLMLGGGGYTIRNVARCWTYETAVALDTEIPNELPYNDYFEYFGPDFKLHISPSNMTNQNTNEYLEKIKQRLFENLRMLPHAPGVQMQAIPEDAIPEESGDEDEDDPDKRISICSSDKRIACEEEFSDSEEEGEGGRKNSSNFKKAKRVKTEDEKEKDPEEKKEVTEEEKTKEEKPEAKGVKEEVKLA
The test system of test [23] is MGC-803. In words: Antiproliferative activity against human MGC803 cells assessed as cell growth inhibition incubated for 72 hrs by MTT assay. The class given is functional, cell-based. The settings on record: MGC-803, 72 h.
The test system of test [24] is NCI-H226. In words: Antiproliferative activity against human NCI-H226 cells assessed as cell growth inhibition incubated for 72 hrs by MTT assay. Format: functional, cell-based. The note with it: NCI-H226, 72 h.
The subject of test [25] is HCT-116. Description: Antiproliferative activity against human HCT116 cells assessed as cell growth inhibition incubated for 72 hrs by MTT assay. The class given is functional, cell-based. The note with it: HCT-116, 72 h.

As usually defined, the pIC50 is −log10 of the IC50, conventionally taken in molar units. The inhibition is the percentage by which the read-out fell short of the control. As to `COc1ccc(/C=C(\C)C(=O)c2cc(OC)c(OC)c(OC)c2)cc1OCCCCC(=O)NO`, the values for the pIC50 in test [1], in test [2] and in test [4] were 5.50, 5.84 and 4.86, respectively. Besides, the inhibition in test [3] came out at 35.4%.
In the case of `O=C(CCCCCCC(=O)Nc1ccccc1)NO` [VORINOSTAT], the Activity in test [5] came to 9.61%; in test [7], 39.53%; in test [9] it was 50.86%; in [10], 7.17%; in test [11] it was 8.58%; in [12], 24%. Further, in [13], the Activity is 60.3%. For the same molecule, in test [6], the outcome was Active. Moreover, the pIC50 in test [8] is 5.67; in test [4], 5.99.
Turning to `COc1ccc(/C=C/C(=O)c2cc(OC)c(OC)c(OC)c2)cc1OCCCCCC(=O)NO`, the pIC50 in test [1] was 4.61; in test [2], 5.03; in test [4], 4.60. The same molecule returned an inhibition in test [3] of 78.5%.
The matching figures for `COc1ccc(/C=C/C(=O)c2cc(OC)c(OC)c(OC)c2)cc1OCCCC(=O)NO`: 4.88, 4.91, 4.76 and 21.8%.
The matching figures for `COc1ccc(/C=C(\C)C(=O)c2cc(OC)c(OC)c(OC)c2)cc1OCCCCCC(=O)NO`: 4.98, 4.87, 4.85 and 74.8%.
Regarding `COc1ccc(/C=C/C(=O)c2cc(OC)c(OC)c(OC)c2)cc1OCCCCCCCC(=O)NO`, the pIC50 was 4.43 in test [1], 4.88 in [2] and < 4.30 in [4]. The inhibition in test [3] is 84.8%.
As usually defined, the IC50 is the concentration that inhibits the measured activity by half. The low end stands for greater potency, the high end for weaker potency. Take `COc1ccc(/C=C(\C)C(=O)c2cc(OC)c(OC)c(OC)c2)cc1OCCCCCCCC(=O)NO`: the pIC50 in test [1] is 4.71; in test [8], 5.00; in test [14] it was 7.87; in test [2], 4.70; in test [15], 4.92; in test [16], 5.31. In addition, the negative-log IC50 (pIC50) in [17] is 4.69; in [18] it was 5.30; in test [19], 4.82; in test [4], 4.55; in test [20], 4.93; in test [22], 7.82. Besides, the values for the pIC50 in test [23], in test [24] and in test [25] were 4.79, 4.63 and 4.97, respectively. This molecule had an inhibition in test [3] of 92.3%. The molecule also yielded an IC50 in [21] of 0.0715 µM.
`COc1ccc(/C=C/C(=O)c2cc(OC)c(OC)c(OC)c2)cc1OCCCCCCC(=O)NO`: the negative logarithm of the IC50 (pIC50) was 4.67 in [1]; 4.90 in test [8]; 8.34 in test [14]; 5.15 in test [2]; 4.75 in [15]; 5.41 in [16]. In addition, the pIC50 was 4.88 in [17]; 4.98 in test [18]; 4.94 in test [19]; 4.61 in [4]; 4.82 in [20]; 7.44 in [22]. Moreover, the negative logarithm of the IC50 (pIC50) in test [23] is 4.99; in test [24] it was 4.81; in test [25] it was 4.52. The same molecule had an inhibition in test [3] of 87.3%. Moreover, in test [21], the IC50 worked out at 0.1326 µM.
As for `COc1ccc(/C=C/C(=O)c2cc(OC)c(OC)c(OC)c2)cc1O`, the pIC50 was 6.36 in test [1]; 5.40 in test [8]; 5.99 in [2]; 5.07 in test [15]; 5.30 in test [17]; 5.40 in [18]. For the same molecule, the pIC50 was 5.12 in test [19]; 5.95 in test [4]; 5.37 in test [20]; 5.08 in [23]; 5.36 in test [24]; 5.55 in [25].
In the case of `COc1ccc(/C=C(\C)C(=O)c2cc(OC)c(OC)c(OC)c2)cc1O`, the pIC50 is < 4.30 in [1], 5.82 in [2] and 5.69 in [4].
In the case of `COc1ccc(/C=C/C(=O)c2cc(OC)c(OC)c(OC)c2)cc1OCCCCC(=O)NO`, the pIC50 in [1] is 4.59; in [2], 4.84; in test [4], < 4.30. In test [3], this molecule displayed an inhibition of 32.9%.
As for `COc1ccc(/C=C(\C)C(=O)c2cc(OC)c(OC)c(OC)c2)cc1OCCCCCCC(=O)NO`, the pIC50 was 4.78 in test [1], 4.94 in [2] and 4.70 in test [4]. The inhibition in [3] was 86%.
